Tests used:
GST-Bcl-2 = GST-Bcl-2 (Homo sapiens, UniProt P10415); test: TR-FRET binding assay, GST-Bcl-2 with F-Bak peptide probe; conditions: for Ki: TR-FRET Binding Affinity
Summary of the method: (§1)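 Ki was derived with Wang's equation for competitive binding of two ligands. The read-out was time-resolved fluorescence after a 3 h room-temperature incubation, using a Tb-labelled antibody donor and the F-Bak peptide acceptor (excitation 340/35 nm). Test compounds entered as DMSO serial dilutions starting at 50 μM, which was the 2× concentration.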

GST-Bcl-XL = GST-Bcl-XL (Homo sapiens, UniProt Q07817); test: TR-FRET binding assay, GST-Bcl-XL with F-Bak peptide probe; conditions: TR-FRET Binding Affinity
Summary of the method: as §1

[1] = GST-Bcl-XL, F-Bak peptide probe
[2] = TR-FRET, Bcl-XL Ki divided by Bcl-2 Ki
[3] = ratio of TR-FRET Ki values, Bcl-XL over Bcl-2

GST-Bcl-2, sequence (P10415 whole entry): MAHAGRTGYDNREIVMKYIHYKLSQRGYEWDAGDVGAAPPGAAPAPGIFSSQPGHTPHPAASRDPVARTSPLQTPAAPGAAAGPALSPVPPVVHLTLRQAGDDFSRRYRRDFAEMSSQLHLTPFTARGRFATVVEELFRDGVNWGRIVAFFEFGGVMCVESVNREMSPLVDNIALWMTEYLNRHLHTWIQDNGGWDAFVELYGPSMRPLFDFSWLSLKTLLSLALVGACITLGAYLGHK
GST-Bcl-XL, sequence (Q07817 whole entry): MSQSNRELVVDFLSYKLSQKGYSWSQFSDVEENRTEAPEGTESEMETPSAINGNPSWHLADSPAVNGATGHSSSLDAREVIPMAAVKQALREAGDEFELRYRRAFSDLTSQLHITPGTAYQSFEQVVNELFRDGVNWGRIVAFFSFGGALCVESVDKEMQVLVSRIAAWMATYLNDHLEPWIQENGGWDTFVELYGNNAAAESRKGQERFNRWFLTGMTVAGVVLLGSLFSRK

CC1(C)CCC(CN2CCN(c3ccc(C(=O)NS(=O)(=O)c4ccc(NCCCN5CCOCC5)c([N+](=O)[O-])c4)c(Oc4ccc5[nH]ncc5c4)c3)CC2)=C(c2ccc(Cl)cc2)C1 [Example 20, 4-(4-{[2-(4-chlorophenyl)-4,4-dimethylcyclohex-1-en-1-yl]methyl}piperazin-1-yl)-2-(1H-indazol-5-yloxy)-N-({4-[(3-morpholin-4-ylpropyl)amino]-3-nitrophenyl}sulfonyl)benzamide]
Ki (GST-Bcl-2; GST-Bcl-2, F-Bak peptide probe): 2.36 nM
Ki (GST-Bcl-XL; [1]): 77.6 nM

CC1(C)CCC(CN2CCN(c3ccc(C(=O)NS(=O)(=O)c4ccc(NCC5CCOCC5)c([N+](=O)[O-])c4)c(Oc4ccc5[nH]ccc5c4)c3)CC2CO)=C(c2ccc(Cl)cc2)C1 (centres unmarked) [Example 236, 4-[4-{[2-(4-chlorophenyl)-4,4-dimethylcyclohex-1-en-1-yl]methyl}-3-(hydroxymethyl)piperazin-1-yl]-2-(1H-indol-5-yloxy)-N-({3-nitro-4-[(tetrahydro-2H-pyran-4-ylmethyl)amino]phenyl}sulfonyl)benzamide]
Ki (GST-Bcl-2; GST-Bcl-2, F-Bak peptide probe): 0.369 nM
Ki (GST-Bcl-XL; [1]): > 660 nM

O=C(NS(=O)(=O)c1ccc(NCC2CCOCC2)c(S(=O)(=O)C(F)(F)F)c1)c1ccc(N2CCN(Cc3cc(OCCN4CCOCC4)ccc3-c3ccc(Cl)cc3)CC2)cc1Oc1ccccc1 [Example 117, 4-(4-{[4′-chloro-4-(2-morpholin-4-ylethoxy)-1,1′-biphenyl-2-yl]methyl}piperazin-1-yl)-2-phenoxy-N-({4-[(tetrahydro-2H-pyran-4-ylmethyl)amino]-3-[(trifluoromethyl)sulfonyl]phenyl}sulfonyl)benzamide]
Ki (GST-Bcl-2; GST-Bcl-2, F-Bak peptide probe): 2.3 nM
Ki (GST-Bcl-XL; [1]): > 660 nM

CC1(C)CCC(CN2CCN(c3ccc(C(=O)NS(=O)(=O)c4ccc(OCC5COCCO5)c(Cl)c4)c(Oc4cccc5[nH]ncc45)c3)CC2)=C(c2ccc(Cl)cc2)C1 (centres unmarked) [Example 502, N-{[3-chloro-4-(1,4-dioxan-2-ylmethoxy)phenyl]sulfonyl}-4-(4-{[2-(4-chlorophenyl)-4,4-dimethylcyclohex-1-en-1-yl]methyl}piperazin-1-yl)-2-(1H-indazol-4-yloxy)benzamide]
Ki (GST-Bcl-2): 0.025 nM
Binding selectivity ratio (Bcl-XL Ki/Bcl-2 Ki) (GST-Bcl-2; [2]): 5754.1
Ki (GST-Bcl-XL): 145 nM

CC1(C)CCC(CN2CCN(c3ccc(C(=O)NS(=O)(=O)c4ccc(NCC5CN(S(C)(=O)=O)CCO5)c([N+](=O)[O-])c4)c(Oc4cccc5[nH]cnc45)c3)CC2)=C(c2ccc(Cl)cc2)C1 (centres unmarked) [Example 458, 2-(1H-benzimidazol-4-yloxy)-4-(4-{[2-(4-chlorophenyl)-4,4-dimethylcyclohex-1-en-1-yl]methyl}piperazin-1-yl)-N-{[4-({[4-(methylsulfonyl)morpholin-2-yl]methyl}amino)-3-nitrophenyl]sulfonyl}benzamide]
Ki (GST-Bcl-2): < 0.01 nM
Binding selectivity ratio (Bcl-XL Ki/Bcl-2 Ki) (GST-Bcl-2; [2]): 237.2
Ki (GST-Bcl-XL): 2.37 nM

CC1(C)CCC(CN2CCN(c3ccc(C(=O)NS(=O)(=O)c4ccc(OCC5(F)CCN(C6COC6)CC5)c(Cl)c4)c(Oc4cccc5[nH]ncc45)c3)CC2)=C(c2ccc(Cl)cc2)C1 [Example 517, N-[(3-chloro-4-{[4-fluoro-1-(oxetan-3-yl)piperidin-4-yl]methoxy}phenyl)sulfonyl]-4-(4-{[2-(4-chlorophenyl)-4,4-dimethylcyclohex-1-en-1-yl]methyl}piperazin-1-yl)-2-(1H-indazol-4-yloxy)benzamide]
Ki (GST-Bcl-2): < 0.01 nM
Binding selectivity ratio (Bcl-XL Ki/Bcl-2 Ki) (GST-Bcl-2; [2]): >607.7
Ki (GST-Bcl-XL): 6.08 nM

CC1(C)CCC(CN2CCN(c3ccc(C(=O)NS(=O)(=O)c4cnc(OC[C@H]5CC[C@H](O)CC5)c(Cl)c4)c(Oc4cccc5[nH]ncc45)c3)CC2)=C(c2ccc(Cl)cc2)C1 [Example 421, Trans-N-({5-chloro-6-[(4-hydroxycyclohexyl)methoxy]pyridin-3-yl}sulfonyl)-4-(4-{[2-(4-chlorophenyl)-4,4-dimethylcyclohex-1-en-1-yl]methyl}piperazin-1-yl)-2-(1H-indazol-4-yloxy)benzamide]
Ki (GST-Bcl-2; GST-Bcl-2, F-Bak peptide probe): 0.026 nM
Binding selectivity ratio (Bcl-XL Ki/Bcl-2 Ki) (GST-Bcl-2; [3]): 2089.5
Ki (GST-Bcl-XL; [1]): 54 nM

COc1ccc(Nc2ccc(S(=O)(=O)NC(=O)c3ccc(N4CCN(CC5=C(c6ccc(Cl)cc6)CC(C)(C)CC5)CC4)cc3Oc3ccc4[nH]ccc4c3)cc2[N+](=O)[O-])cc1O [Example 394, 4-(4-{[2-(4-chlorophenyl)-4,4-dimethylcyclohex-1-en-1-yl]methyl}piperazin-1-yl)-N-({4-[(3-hydroxy-4-methoxyphenyl)amino]-3-nitrophenyl}sulfonyl)-2-(1H-indol-5-yloxy)benzamide]
Ki (GST-Bcl-2; GST-Bcl-2, F-Bak peptide probe): 2.51 nM
Binding selectivity ratio (Bcl-XL Ki/Bcl-2 Ki) (GST-Bcl-2; [3]): >263262.9
Ki (GST-Bcl-XL; [1]): > 660000 nM

O=C(NS(=O)(=O)c1ccc(NCCCN2CCOCC2)c(S(=O)(=O)C(F)(F)F)c1)c1ccc(N2CCN(Cc3ccccc3-c3ccc(Cl)cc3)CC2)cc1Oc1cccc2[nH]ccc12 [Example 65, 4-{4-[(4′-chloro-1,1′-biphenyl-2-yl)methyl]piperazin-1-yl}-2-(1H-indol-4-yloxy)-N-({4-[(3-morpholin-4-ylpropyl)amino]-3-[(trifluoromethyl)sulfonyl]phenyl}sulfonyl)benzamide]
Ki (GST-Bcl-2; GST-Bcl-2, F-Bak peptide probe): 4.56 nM
Ki (GST-Bcl-XL; [1]): 21.8 nM

CC1(C)CCC(CN2CCN(c3ccc(C(=O)NS(=O)(=O)c4ccc(NC[C@H]5CN(C6CC6)CCO5)c([N+](=O)[O-])c4)c(Oc4cccc5[nH]ncc45)c3)CC2)=C(c2ccc(Cl)cc2)C1 [Example 529, 4-(4-{[2-(4-chlorophenyl)-4,4-dimethylcyclohex-1-en-1-yl]methyl}piperazin-1-yl)-N-{[4-({[(2S)-4-cyclopropylmorpholin-2-yl]methyl}amino)-3-nitrophenyl]sulfonyl}-2-(1H-indazol-4-yloxy)benzamide]
Ki (GST-Bcl-2): < 0.01 nM
Binding selectivity ratio (Bcl-XL Ki/Bcl-2 Ki) (GST-Bcl-2; [2]): >828.4
Ki (GST-Bcl-XL): 8.28 nM

CC1(C)CCC(CN2CCN(c3ccc(C(=O)NS(=O)(=O)c4ccc(OCC5CCOCC5)c(Cl)c4)c(Oc4cccc5[nH]ncc45)c3)CC2)=C(c2ccc(Cl)cc2)C1 [Example 498, 4-(4-{[2-(4-chlorophenyl)-4,4-dimethylcyclohex-1-en-1-yl]methyl}piperazin-1-yl)-N-{[3-chloro-4-(tetrahydro-2H-pyran-4-ylmethoxy)phenyl]sulfonyl}-2-(1H-indazol-4-yloxy)benzamide]
Ki (GST-Bcl-2): < 0.01 nM
Binding selectivity ratio (Bcl-XL Ki/Bcl-2 Ki) (GST-Bcl-2; [2]): >12491.0
Ki (GST-Bcl-XL): 125 nM

CN(C)CC(=O)N1CCO[C@H](CNc2ccc(S(=O)(=O)NC(=O)c3ccc(N4CCN(CC5=C(c6ccc(Cl)cc6)CC(C)(C)CC5)CC4)cc3Oc3cccc4[nH]cnc34)cc2[N+](=O)[O-])C1 [Example 437, 2-(1H-benzimidazol-4-yloxy)-4-(4-{[2-(4-chlorophenyl)-4,4-dimethylcyclohex-1-en-1-yl]methyl}piperazin-1-yl)-N-{[4-({[(2R)-4-(N,N-dimethylglycyl)morpholin-2-yl]methyl}amino)-3-nitrophenyl]sulfonyl}benzamide]
Ki (GST-Bcl-2): < 0.01 nM
Ki (GST-Bcl-XL): 0.514 nM

CC1(C)CCC(CN2CCN(c3ccc(C(=O)NS(=O)(=O)c4cnc(OCC5(F)CCN(CC#N)CC5)c(Cl)c4)c(Oc4cccc5[nH]ncc45)c3)CC2)=C(c2ccc(Cl)cc2)C1 [Example 419, N-[(5-chloro-6-{[1-(cyanomethyl)-4-fluoropiperidin-4-yl]methoxy}pyridin-3-yl)sulfonyl]-4-(4-{[2-(4-chlorophenyl)-4,4-dimethylcyclohex-1-en-1-yl]methyl}piperazin-1-yl)-2-(1H-indazol-4-yloxy)benzamide]
Ki (GST-Bcl-2; GST-Bcl-2, F-Bak peptide probe): 0.197 nM
Binding selectivity ratio (Bcl-XL Ki/Bcl-2 Ki) (GST-Bcl-2; [3]): 1070.8
Ki (GST-Bcl-XL; [1]): 211 nM

O=C(NS(=O)(=O)c1ccc(NCC2CCOCC2)c([N+](=O)[O-])c1)c1ccc(N2CCN(Cc3cc(OCCN4CCOCC4)ccc3-c3ccc(Cl)cc3)CC2)cc1Oc1ccccc1 [Example 115, 4-(4-{[4′-chloro-4-(2-morpholin-4-ylethoxy)-1,1′-biphenyl-2-yl]methyl}piperazin-1-yl)-N-({3-nitro-4-[(tetrahydro-2H-pyran-4-ylmethyl)amino]phenyl}sulfonyl)-2-phenoxybenzamide]
Ki (GST-Bcl-2; GST-Bcl-2, F-Bak peptide probe): 0.176 nM
Ki (GST-Bcl-XL; [1]): 27.5 nM

CC1(C)CCC(CN2CCN(c3cc(Oc4cccc5[nH]ncc45)c(C(=O)NS(=O)(=O)c4cnc(OCC5(F)CCOCC5)c(Cl)c4)cc3Cl)CC2)=C(c2ccc(Cl)cc2)C1 [Example 510, 5-chloro-N-({5-chloro-6-[(4-fluorotetrahydro-2H-pyran-4-yl)methoxy]pyridin-3-yl}sulfonyl)-4-(4-{[2-(4-chlorophenyl)-4,4-dimethylcyclohex-1-en-1-yl]methyl}piperazin-1-yl)-2-(1H-indazol-4-yloxy)benzamide]
Ki (GST-Bcl-2): 0.674 nM
Binding selectivity ratio (Bcl-XL Ki/Bcl-2 Ki) (GST-Bcl-2; [2]): 257.8
Ki (GST-Bcl-XL): 174 nM

CN1CCN(CCNc2ccc(S(=O)(=O)NC(=O)c3ccc(N4CCN(CC5=C(c6ccc(Cl)cc6)CC(C)(C)CC5)CC4)cc3Oc3ccc4[nH]ccc4c3)cc2[N+](=O)[O-])CC1 [Example 95, 4-(4-{[2-(4-chlorophenyl)-4,4-dimethylcyclohex-1-en-1-yl]methyl}piperazin-1-yl)-2-(1H-indol-5-yloxy)-N-[(4-{[2-(4-methylpiperazin-1-yl)ethyl]amino}-3-nitrophenyl)sulfonyl]benzamide]
Ki (GST-Bcl-2; GST-Bcl-2, F-Bak peptide probe): 0.06 nM
Ki (GST-Bcl-XL; [1]): 15.7 nM

CC1(C)CCC(CN2CCN(c3ccc(C(=O)NS(=O)(=O)c4cnc(OCC5CCOCC5)c(F)c4)c(Oc4cccc5[nH]ncc45)c3)CC2)=C(c2ccc(Cl)cc2)C1 [Example 487, 4-(4-{[2-(4-chlorophenyl)-4,4-dimethylcyclohex-1-en-1-yl]methyl}piperazin-1-yl)-N-{[5-fluoro-6-(tetrahydro-2H-pyran-4-ylmethoxy)pyridin-3-yl]sulfonyl}-2-(1H-indazol-4-yloxy)benzamide]
Ki (GST-Bcl-2): 0.033 nM
Binding selectivity ratio (Bcl-XL Ki/Bcl-2 Ki) (GST-Bcl-2; [2]): 2287.2
Ki (GST-Bcl-XL): 75.4 nM

— patent US9073855B2, “BCL-2 selective apoptosis-inducing agents for the treatment of cancer and immune diseases” (AbbVie Inc., priority 2008, dated 2015)
